# Test results as given in publication PMC4893804 (Journal of medicinal chemistry, 2015).
# Like-named read-outs stand apart in the source and are kept apart here.
# Legend:
# [1] = target: HCMV DNA polymerase (UL54) (Human cytomegalovirus, UniProt P08546); experiment: Enzyme assay with HCMV DNA polymerase; type: biochemical; details: activated calf thymus DNA, [3H]dTTP
# Human DNA Pol β = Human DNA Pol β (Homo sapiens, UniProt P06746); experiment: Enzyme assay with human DNA polymerase β; type: biochemical
# Human DNA Pol α = target: T1, Human DNA Pol α (Homo sapiens, UniProt P09884); experiment: Enzyme assay with human DNA polymerase α; type: biochemical
# T1 sequence (P09884 1-1462): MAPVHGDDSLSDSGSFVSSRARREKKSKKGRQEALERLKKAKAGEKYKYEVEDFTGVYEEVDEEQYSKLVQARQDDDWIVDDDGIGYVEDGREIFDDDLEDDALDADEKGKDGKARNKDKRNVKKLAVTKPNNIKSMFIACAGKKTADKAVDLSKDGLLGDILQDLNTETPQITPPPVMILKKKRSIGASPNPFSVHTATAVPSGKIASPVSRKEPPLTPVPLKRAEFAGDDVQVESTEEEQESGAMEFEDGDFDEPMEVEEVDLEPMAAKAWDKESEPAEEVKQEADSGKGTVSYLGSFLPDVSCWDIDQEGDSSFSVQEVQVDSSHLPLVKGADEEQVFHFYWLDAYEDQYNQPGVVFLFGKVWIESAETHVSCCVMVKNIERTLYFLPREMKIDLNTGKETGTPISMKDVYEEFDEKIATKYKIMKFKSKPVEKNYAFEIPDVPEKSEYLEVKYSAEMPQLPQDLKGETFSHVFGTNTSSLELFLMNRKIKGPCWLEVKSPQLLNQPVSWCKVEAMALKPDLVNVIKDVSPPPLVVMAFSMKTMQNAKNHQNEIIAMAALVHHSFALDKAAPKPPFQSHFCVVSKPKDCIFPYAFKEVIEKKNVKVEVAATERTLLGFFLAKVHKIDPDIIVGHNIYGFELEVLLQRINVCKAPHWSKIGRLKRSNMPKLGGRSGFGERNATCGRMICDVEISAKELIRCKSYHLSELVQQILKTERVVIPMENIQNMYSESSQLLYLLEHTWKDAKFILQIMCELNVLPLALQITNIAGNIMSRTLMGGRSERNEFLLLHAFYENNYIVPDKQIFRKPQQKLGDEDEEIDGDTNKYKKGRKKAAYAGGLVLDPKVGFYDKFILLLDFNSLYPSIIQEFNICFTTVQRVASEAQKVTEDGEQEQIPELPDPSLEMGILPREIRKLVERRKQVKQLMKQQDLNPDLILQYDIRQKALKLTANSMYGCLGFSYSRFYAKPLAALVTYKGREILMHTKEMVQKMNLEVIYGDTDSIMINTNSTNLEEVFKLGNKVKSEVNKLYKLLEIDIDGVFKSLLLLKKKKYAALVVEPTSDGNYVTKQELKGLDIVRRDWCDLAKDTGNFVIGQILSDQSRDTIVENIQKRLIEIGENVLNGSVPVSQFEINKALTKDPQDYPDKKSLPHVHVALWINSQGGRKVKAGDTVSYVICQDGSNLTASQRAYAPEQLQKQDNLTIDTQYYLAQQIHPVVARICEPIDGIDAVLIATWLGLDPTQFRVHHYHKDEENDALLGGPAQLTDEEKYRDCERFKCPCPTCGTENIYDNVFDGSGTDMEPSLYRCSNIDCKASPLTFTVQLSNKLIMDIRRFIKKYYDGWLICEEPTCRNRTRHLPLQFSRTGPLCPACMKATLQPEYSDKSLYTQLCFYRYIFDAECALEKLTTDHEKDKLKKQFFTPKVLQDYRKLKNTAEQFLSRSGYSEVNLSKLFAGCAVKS
# VZV DNA polymerase = VZV DNA polymerase (Varicella-zoster virus, UniProt P09252); experiment: Enzyme assay with VZV DNA polymerase; type: biochemical
# VZV DNA polymerase, sequence (P09252 whole entry): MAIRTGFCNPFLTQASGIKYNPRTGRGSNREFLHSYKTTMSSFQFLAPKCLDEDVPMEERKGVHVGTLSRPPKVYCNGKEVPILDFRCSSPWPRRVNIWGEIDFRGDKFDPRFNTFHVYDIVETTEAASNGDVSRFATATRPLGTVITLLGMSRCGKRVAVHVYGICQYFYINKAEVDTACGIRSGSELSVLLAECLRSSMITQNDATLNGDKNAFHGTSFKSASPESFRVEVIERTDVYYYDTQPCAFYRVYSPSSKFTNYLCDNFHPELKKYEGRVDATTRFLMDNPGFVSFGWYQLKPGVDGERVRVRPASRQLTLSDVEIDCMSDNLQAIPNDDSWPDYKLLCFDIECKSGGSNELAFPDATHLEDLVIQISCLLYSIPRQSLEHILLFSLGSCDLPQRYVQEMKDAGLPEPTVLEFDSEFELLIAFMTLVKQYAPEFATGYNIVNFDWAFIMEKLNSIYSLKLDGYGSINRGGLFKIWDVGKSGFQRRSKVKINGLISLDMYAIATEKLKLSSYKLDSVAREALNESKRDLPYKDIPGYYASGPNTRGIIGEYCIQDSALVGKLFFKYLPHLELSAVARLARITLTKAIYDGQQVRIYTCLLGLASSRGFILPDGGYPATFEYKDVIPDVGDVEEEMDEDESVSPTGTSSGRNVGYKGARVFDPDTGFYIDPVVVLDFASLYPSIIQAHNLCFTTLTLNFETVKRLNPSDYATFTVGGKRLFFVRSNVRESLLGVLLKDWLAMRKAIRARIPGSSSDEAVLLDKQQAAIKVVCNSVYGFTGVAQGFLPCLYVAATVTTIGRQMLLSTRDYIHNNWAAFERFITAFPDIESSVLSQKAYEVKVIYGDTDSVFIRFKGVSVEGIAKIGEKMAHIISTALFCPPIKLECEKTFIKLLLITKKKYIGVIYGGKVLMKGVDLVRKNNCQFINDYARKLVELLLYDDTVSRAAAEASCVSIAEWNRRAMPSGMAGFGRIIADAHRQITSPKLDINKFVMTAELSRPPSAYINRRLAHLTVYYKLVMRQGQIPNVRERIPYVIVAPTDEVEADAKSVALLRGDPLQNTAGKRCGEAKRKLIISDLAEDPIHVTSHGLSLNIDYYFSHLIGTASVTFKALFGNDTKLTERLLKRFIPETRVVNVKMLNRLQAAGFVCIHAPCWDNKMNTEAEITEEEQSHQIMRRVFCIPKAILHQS
# HSV-1 DNA polymerase = HSV-1 DNA polymerase (Human herpesvirus 1, UniProt P04293); experiment: Enzyme assay with HSV-1 DNA polymerase; type: biochemical
# HSV-1 DNA polymerase, sequence (P04293 whole entry): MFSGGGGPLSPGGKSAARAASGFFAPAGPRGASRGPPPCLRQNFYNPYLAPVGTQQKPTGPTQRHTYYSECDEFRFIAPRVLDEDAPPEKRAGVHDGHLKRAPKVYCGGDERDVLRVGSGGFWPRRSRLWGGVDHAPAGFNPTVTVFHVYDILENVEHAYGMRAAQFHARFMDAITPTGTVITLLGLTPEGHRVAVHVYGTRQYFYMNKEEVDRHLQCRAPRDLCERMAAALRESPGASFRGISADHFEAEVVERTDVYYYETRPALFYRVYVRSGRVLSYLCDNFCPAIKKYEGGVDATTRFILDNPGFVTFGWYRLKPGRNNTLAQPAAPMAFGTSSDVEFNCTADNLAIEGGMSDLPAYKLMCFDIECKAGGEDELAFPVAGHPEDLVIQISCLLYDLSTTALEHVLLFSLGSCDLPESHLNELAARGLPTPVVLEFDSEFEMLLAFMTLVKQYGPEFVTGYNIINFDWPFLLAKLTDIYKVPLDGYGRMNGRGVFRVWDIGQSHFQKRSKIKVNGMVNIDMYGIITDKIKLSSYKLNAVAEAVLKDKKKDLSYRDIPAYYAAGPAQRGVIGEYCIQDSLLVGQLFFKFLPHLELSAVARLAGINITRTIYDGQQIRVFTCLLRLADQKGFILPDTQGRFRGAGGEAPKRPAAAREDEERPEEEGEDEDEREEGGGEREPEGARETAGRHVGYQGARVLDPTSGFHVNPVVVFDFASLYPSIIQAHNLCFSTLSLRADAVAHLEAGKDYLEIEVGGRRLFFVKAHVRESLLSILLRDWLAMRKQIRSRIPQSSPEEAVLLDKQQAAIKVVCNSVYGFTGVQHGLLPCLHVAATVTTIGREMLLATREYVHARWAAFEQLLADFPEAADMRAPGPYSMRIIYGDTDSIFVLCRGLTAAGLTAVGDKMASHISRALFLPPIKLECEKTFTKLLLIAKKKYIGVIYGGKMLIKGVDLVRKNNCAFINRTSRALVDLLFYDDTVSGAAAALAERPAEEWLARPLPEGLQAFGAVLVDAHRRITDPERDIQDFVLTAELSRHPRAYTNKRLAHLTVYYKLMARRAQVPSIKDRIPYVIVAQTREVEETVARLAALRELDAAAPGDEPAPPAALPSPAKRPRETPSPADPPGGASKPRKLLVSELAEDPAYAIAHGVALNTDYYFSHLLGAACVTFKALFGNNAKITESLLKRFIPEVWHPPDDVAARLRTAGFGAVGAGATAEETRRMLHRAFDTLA
# HIV-1 RT = HIV-1 RT (Human immunodeficiency virus type 1 group M subtype B, UniProt P03366); experiment: HIV-1 reverse transcriptase assay with homopolymeric template/primers; type: biochemical
# M184I HIV-1 RT = M184I HIV-1 RT (Human immunodeficiency virus type 1 group M subtype B, UniProt P03366, M783I); experiment: Mutant HIV-1 RT assay
# Y115F HIV-1 RT = Y115F HIV-1 RT (Human immunodeficiency virus type 1 group M subtype B, UniProt P03366, Y714F); experiment: Mutant HIV-1 RT assay
# [2] = IC50 HIV-1 RT, poly rA.dT template/primer, [3H]dTTP
# [3] = IC50 HIV-1 RT Poly rA.dT ([3H]dTTP), Table 7, Poly rA.dT, [3H]dTTP
# [4] = IC50 HIV-1 RT Poly rC.dG ([3H]dGTP), Poly rC.dG, [3H]dGTP
# [5] = IC50 HIV-1 RT Poly rI.dC ([3H]dCTP), Poly rI.dC, [3H]dCTP
# [6] = IC50 HIV-1 RT Poly rU.dA ([3H]dATP), Poly rU.dA, [3H]dATP
# [7] = read-out: IC50 HIV-1 RT Poly rA.dT ([3H]dTTP), Table 7, Poly rA.dT, [3H]dTTP
# [8] = read-out: IC50 HIV-1 RT Poly rC.dG ([3H]dGTP), Poly rC.dG, [3H]dGTP
# [9] = read-out: IC50 HIV-1 RT Poly rI.dC ([3H]dCTP), Poly rI.dC, [3H]dCTP
# [10] = read-out: IC50 HIV-1 RT Poly rU.dA ([3H]dATP), Poly rU.dA, [3H]dATP
# HCMV DNA polymerase (UL54), sequence (P08546 whole entry): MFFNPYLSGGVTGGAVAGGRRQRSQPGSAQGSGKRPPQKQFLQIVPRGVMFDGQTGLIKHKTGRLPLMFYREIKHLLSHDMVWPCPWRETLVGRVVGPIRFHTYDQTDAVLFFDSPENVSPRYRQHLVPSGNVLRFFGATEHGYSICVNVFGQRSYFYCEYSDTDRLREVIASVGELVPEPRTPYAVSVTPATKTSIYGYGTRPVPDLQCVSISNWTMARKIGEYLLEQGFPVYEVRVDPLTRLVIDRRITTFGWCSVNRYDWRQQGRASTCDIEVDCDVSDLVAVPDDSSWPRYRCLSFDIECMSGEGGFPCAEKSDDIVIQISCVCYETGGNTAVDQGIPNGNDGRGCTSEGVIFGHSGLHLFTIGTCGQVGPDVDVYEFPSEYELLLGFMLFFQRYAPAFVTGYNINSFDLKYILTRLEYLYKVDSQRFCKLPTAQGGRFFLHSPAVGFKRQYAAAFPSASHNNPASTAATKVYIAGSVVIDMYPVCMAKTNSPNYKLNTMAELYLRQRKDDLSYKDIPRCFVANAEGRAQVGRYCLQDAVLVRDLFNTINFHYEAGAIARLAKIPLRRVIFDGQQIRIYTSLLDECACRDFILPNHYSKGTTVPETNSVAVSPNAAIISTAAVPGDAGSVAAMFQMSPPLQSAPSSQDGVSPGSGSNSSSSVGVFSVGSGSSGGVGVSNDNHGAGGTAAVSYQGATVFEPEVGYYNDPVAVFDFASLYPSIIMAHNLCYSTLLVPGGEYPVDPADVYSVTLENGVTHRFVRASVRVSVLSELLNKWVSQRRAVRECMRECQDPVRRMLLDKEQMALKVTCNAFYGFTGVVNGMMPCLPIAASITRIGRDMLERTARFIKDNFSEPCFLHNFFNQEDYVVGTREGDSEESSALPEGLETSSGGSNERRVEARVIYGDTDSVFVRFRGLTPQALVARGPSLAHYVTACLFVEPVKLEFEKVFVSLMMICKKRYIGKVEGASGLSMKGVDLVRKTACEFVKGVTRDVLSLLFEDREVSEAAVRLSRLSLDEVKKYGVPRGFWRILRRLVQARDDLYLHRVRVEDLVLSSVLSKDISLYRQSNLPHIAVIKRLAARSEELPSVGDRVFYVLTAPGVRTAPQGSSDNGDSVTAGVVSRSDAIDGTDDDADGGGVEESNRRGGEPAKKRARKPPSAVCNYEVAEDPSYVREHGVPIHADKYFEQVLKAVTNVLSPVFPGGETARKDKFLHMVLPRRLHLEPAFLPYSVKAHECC
structure (smiles),measurement,setting,value
"O=C(O)C(OCCCCn1cc(F)c(=O)[nH]c1=O)P(=O)(O)O (centres unmarked) [Compound 6j, 2-(4-(5-Fluoro-2,4-dioxo-3,4-dihydropyrimidin-1(2H)-yl)butoxy)-2-phosphonoacetic acid]",IC50,[1]; read-out: IC50 HCMV DNA Pol,9.4 ± 4.1 µM
same,IC50,"Human DNA Pol β; read-out: IC50 Human DNA Pol β, activated calf thymus DNA, [3H]dTTP",306 ± 3 µM
same,IC50,"Human DNA Pol α; read-out: IC50 Human DNA Pol α, activated calf thymus DNA, [3H]dTTP",72 ± 52 µM
same,IC50,"VZV DNA polymerase; read-out: IC50 VZV DNA Pol, poly dA.oligo dT, [3H]dTTP",4.1 ± 0.9 µM
same,IC50,"HSV-1 DNA polymerase; read-out: IC50 HSV-1 DNA Pol, activated calf thymus DNA, [3H]dTTP",6.7 ± 4.6 µM
same,IC50,"HIV-1 RT; read-out: IC50 HIV-1 RT, poly rA.dT template/primer, [3H]dTTP",263 ± 69 µM
"Cc1cn(Cc2cn(CCOC(C(=O)O)P(=O)(O)O)nn2)c(=O)[nH]c1=O (centres unmarked) [Compound 6f, 2-(2-(4-((5-methyl-2,4-dioxo-3,4-dihydropyrimidin-1(2H)-yl)methyl)-1H-1,2,3-triazol-1-yl)ethoxy)-2-phosphonoacetic acid]",IC50,[1]; IC50 HCMV DNA Pol,38 ± 6 µM
same,IC50,Human DNA Pol β,361 ± 160 µM
same,IC50,Human DNA Pol α,332 ± 28 µM
same,IC50,VZV DNA polymerase,24 ± 4 µM
same,IC50,HSV-1 DNA polymerase,25 ± 21 µM
same,IC50,HIV-1 RT; [2],> 500 µM
"Nc1ncnc2c1ncn2[C@H]1CC[C@@H](COP(=O)(O)OP(=O)(O)OP(=O)(O)O)O1 [ddATP, reference compound]",IC50,HIV-1 RT; [3],> 20 µM
same,IC50,HIV-1 RT; [4],> 20 µM
same,IC50,HIV-1 RT; [5],> 20 µM
same,IC50,HIV-1 RT; [6],0.46 ± 0.12 µM
"O=C(O)C(OC/C=C\Cn1cc(F)c(=O)[nH]c1=O)P(=O)(O)O (stereo not drawn) [Compound 6i, 2-Cis-(4-(5-fluoro-2,4-dioxo-3,4-dihydropyrimidin-1(2H)-yl)but-2-enyloxy)-2-phosphonoacetic acid]",IC50,[1]; IC50 HCMV DNA Pol,30 ± 16 µM
same,IC50,Human DNA Pol β,> 500 µM
same,IC50,Human DNA Pol α,325 ± 4 µM
same,IC50,VZV DNA polymerase,27 ± 2 µM
same,IC50,HSV-1 DNA polymerase,24 ± 1 µM
same,IC50,HIV-1 RT; [2],> 500 µM
"Cc1cn([C@H]2CC[C@@H](COP(=O)(O)OP(=O)(O)OP(=O)(O)O)O2)c(=O)[nH]c1=O [ddTTP, reference compound]",IC50,HIV-1 RT; [7],0.05 ± 0.01 µM
same,IC50,HIV-1 RT; [8],> 20 µM
same,IC50,HIV-1 RT; [9],> 20 µM
same,IC50,HIV-1 RT; [10],> 20 µM
"Nc1ncnc2c1ncn2C/C=C\COC(C(=O)O)P(=O)(O)O (stereo not drawn) [Compound 6k, 2-Cis-(4-(6-amino-9H-purin-9-yl)but-2-enyloxy)-2-phosphonoacetic acid]",IC50,[1]; IC50 HCMV DNA Pol,5.5 ± 2.1 µM
same,IC50,Human DNA Pol β,454 ± 28 µM
same,IC50,Human DNA Pol α,≥ 500 µM
same,IC50,M184I HIV-1 RT,≥ 2500 µM
same,IC50,VZV DNA polymerase,3.3 ± 0.4 µM
same,IC50,Y115F HIV-1 RT,630 ± 37 µM
same,IC50,HSV-1 DNA polymerase,2.7 ± 2 µM
same,IC50,HIV-1 RT; [3],404 ± 30 µM
same,IC50,HIV-1 RT; [4],> 500 µM
same,IC50,HIV-1 RT; [5],> 500 µM
same,IC50,HIV-1 RT; [6],40 ± 8 µM
same,IC50,HIV-1 RT; [2],404 ± 30 µM
same,IC50,"HIV-1 RT; IC50 Wild-type HIV-1 RT, Table 8, wild-type RT",531 ± 154 µM
"Nc1ccn([C@H]2CC[C@@H](COP(=O)(O)OP(=O)(O)OP(=O)(O)O)O2)c(=O)n1 [ddCTP, reference compound]",IC50,HIV-1 RT; IC50 HIV-1 RT Poly rA.dT ([3H]dTTP),> 20 µM
same,IC50,HIV-1 RT; IC50 HIV-1 RT Poly rC.dG ([3H]dGTP),> 20 µM
same,IC50,HIV-1 RT; IC50 HIV-1 RT Poly rI.dC ([3H]dCTP),3.1 ± 2.2 µM
same,IC50,HIV-1 RT; IC50 HIV-1 RT Poly rU.dA ([3H]dATP),> 20 µM
"Nc1nc2c(ncn2[C@H]2CC[C@@H](COP(=O)(O)OP(=O)(O)OP(=O)(O)O)O2)c(=O)[nH]1 [ddGTP, reference compound]",IC50,HIV-1 RT; [7],> 20 µM
same,IC50,HIV-1 RT; [8],0.26 ± 0.17 µM
same,IC50,HIV-1 RT; [9],> 20 µM
same,IC50,HIV-1 RT; [10],> 20 µM
